In patent publication US20240336642A1 (The General Hospital Corporation, priority 2021, published 2024):
pEC50: −log10 of the molar value.

Experiments:
Mouse HT22 = Mouse HT22 EC50; format: cell-based; conditions: HT-22
[1] = test system: experimental stroke model in mice (MCAO); test: Long-term outcome after MCAO: corner test; format: in vivo, mouse; conditions: 40 mg/kg i.v. 2 hours post reperfusion
Procedure: (§1) Long-term outcome experiment: 40 mg/kg cmpd. 1 delivered I.V. 2 hours post reperfusion, same as short term, compared to vehicle (10% solutol/90% PEG400). 45 mice operated, and 27 survived, mice were sacrificed on day 30.

[2] = test system: experimental stroke model in mice (MCAO); test: Long-term outcome after MCAO: Garcia score; format: in vivo, mouse; conditions: 40 mg/kg i.v. 2 hours post reperfusion
Procedure: as §1

SAH wild-type mice = test: Subarachnoid hemorrhage (SAH) mouse model; format: in vivo; conditions: wild-type mice with SAH
From the text: The effect of the exemplified compounds (which are, e.g., inhibitors of 12/15-LOX as discussed herein) on treating bran injury after subarachnoid hemorrhage can be assessed in a mouse model as described, for example, in Gaberel et al, Stroke, 2019, 50, 520-523, which is incorporated herein by reference in its entirety. Subarachnoid hemorrhage (SAH) is a devastating form of stroke. It may lead to substantial brain injury. The mouse model to study the impact of 12/15-LOX inhibitors on subarachnoid hemorrhage includes C57Bl6 wild-type mice and Alox15 knockout mice. These mice are subjected to SAH using direct blood injection technique. […] Immunohistochemistry, brain edema, blood-brain barrier leakage and functional outcomes were assessed 1 and 3 days after SAH induction. […]
All animal experiments were performed following protocols approved by the Massachusetts General Hospital Institutional Animal Care and Use Committee in accordance with the National Institutes of Health Guide for the Care and Use of Laboratory Animals. […] Sample sizes were evaluated as follows: based on prior experience, coefficients of variation around 35% between mice are expected. […]
Except the mice used for IHC 24 h after SAH induction, all mice were assessed at 72 hours using a 4-point Neuroscore scale, a 18 point Neuroscore scale, and by evaluating spontaneous activity. […]

[3] = Aqueous solubility of exemplified compounds (Example 3); format: physicochemical; conditions: aqueous solubility
[4] = test system: experimental stroke model in mice (MCAO); test: Long-term outcome after MCAO: adhesive (tape) removal test; format: in vivo, mouse; conditions: 40 mg/kg i.v. 2 hours post reperfusion
Procedure: as §1

[5] = Solubility in formulation vehicles (Solutol HS-15/PEG400, Captisol); format: physicochemical; conditions: 10% Solutol/90% PEG400
Procedure: Combinations of Solutol HS-15 (also known as Kolliphor HS-15) with PEG400 provided a good vehicle to solubilize the tested compounds. Specifically, 10% Solutol/90% PEG400 was used to prepare 20 mg/ml solutions of compound 1, compound 44, and compound 32. 10% Solutol/15% H2O/[…] led to 10 mg/ml solutions of the tested compounds.
20 mg/ml were obtained in 20% Captisol, allowing for intravenous delivery in the mouse stroke model.

5-LOX = 5-LOX (Homo sapiens (Human), UniProt P09917); test: Selectivity versus 5-LOX; format: biochemical
[6] = test system: experimental stroke model in mice (MCAO); test: Mouse stroke model, filament middle cerebral artery occlusion (MCAO), infarct size; format: in vivo
Procedure: Studies were carried out in experimental stroke model in mice, using the filament model of middle cerebral artery occlusion (MCAO). For intraperitoneal delivery, compounds were dissolved in DMSO. A number of exemplified compounds were able to reduce infarct size when given at a dosage of 40 mg/kg.
40 mg/kg cmpd. 1 were given i.p. at time of reperfusion. Infarct size was measured at 24 hours after 60 minutes MCAO.
MCAO (Experimental Middle Cerebral Artery Ischemia and Functional Recovery) experiment: 40 mg/kg of compound delivered intraperitoneally 2 h post reperfusion, 60 minutes MCAO, sacrifice at 24 h, infarct size determined by TTC staining.

COX-1 = test: Selectivity versus COX-1; format: biochemical
12-LOX = 12-LOX (Homo sapiens (Human), UniProt P18054); test: Selectivity versus 12-LOX; format: biochemical
Human 12/15-LOX HEK = Human 12/15-LOX HEK (Homo sapiens (Human), UniProt P16050); test: Human 12/15-LOX HEK EC50; format: cell-based
[7] = test system: experimental stroke model in mice (MCAO); test: Long-term outcome after MCAO: foot fault test; format: in vivo, mouse; conditions: 40 mg/kg i.v. 2 hours post reperfusion
Procedure: as §1

Human 12/15-LOX HEK, sequence (P16050 whole entry, the tested form may be a part): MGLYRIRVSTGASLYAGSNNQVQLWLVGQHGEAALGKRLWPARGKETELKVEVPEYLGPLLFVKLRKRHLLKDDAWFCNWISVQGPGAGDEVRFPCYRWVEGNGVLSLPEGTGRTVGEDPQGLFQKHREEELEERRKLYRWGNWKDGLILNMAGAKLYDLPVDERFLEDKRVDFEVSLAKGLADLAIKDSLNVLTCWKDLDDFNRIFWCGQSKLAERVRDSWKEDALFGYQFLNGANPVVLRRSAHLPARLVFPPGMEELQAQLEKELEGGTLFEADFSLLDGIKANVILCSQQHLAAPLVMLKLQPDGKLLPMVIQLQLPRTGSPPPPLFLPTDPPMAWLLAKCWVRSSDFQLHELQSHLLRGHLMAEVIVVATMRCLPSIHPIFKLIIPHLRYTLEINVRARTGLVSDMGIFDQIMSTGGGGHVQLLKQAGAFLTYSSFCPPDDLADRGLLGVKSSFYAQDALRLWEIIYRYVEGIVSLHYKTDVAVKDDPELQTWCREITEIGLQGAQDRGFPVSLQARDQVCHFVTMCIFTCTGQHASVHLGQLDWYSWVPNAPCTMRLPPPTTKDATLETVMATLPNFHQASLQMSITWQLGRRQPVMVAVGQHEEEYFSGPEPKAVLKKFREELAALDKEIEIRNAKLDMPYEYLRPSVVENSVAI
5-LOX, sequence (P09917 whole entry): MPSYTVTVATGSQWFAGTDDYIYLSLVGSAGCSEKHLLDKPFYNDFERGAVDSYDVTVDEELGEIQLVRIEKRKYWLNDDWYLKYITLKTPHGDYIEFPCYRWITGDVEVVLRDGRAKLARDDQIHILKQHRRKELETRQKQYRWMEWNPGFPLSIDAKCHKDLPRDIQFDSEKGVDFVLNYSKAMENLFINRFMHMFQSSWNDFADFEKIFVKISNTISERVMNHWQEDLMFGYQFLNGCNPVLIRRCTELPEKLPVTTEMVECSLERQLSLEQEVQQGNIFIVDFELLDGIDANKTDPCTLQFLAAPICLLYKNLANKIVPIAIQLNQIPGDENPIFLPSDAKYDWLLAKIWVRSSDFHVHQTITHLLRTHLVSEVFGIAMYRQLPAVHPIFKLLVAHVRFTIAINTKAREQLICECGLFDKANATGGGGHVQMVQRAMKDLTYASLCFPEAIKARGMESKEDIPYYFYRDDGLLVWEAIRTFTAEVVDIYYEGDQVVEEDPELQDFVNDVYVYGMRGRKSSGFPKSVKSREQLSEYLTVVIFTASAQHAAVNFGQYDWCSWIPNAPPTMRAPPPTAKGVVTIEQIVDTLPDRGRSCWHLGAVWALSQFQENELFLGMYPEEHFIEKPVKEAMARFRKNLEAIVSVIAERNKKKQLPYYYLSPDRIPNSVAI
12-LOX, sequence (P18054 whole entry): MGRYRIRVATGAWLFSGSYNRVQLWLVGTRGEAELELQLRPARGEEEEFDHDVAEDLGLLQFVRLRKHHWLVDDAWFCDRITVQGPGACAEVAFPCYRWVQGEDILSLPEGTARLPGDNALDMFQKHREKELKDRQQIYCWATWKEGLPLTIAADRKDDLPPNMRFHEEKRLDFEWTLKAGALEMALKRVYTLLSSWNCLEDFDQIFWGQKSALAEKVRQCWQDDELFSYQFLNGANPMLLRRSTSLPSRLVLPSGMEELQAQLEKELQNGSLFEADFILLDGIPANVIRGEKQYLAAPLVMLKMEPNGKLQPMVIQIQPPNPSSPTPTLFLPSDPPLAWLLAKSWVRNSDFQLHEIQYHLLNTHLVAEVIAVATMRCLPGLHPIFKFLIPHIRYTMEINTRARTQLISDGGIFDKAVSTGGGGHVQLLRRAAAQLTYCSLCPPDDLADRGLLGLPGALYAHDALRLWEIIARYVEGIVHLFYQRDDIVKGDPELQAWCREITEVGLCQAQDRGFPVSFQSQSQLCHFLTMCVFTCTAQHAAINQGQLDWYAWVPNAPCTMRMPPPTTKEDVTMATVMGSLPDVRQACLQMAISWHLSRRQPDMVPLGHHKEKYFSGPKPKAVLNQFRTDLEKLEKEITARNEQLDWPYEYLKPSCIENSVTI

With `CNc1oc(-c2cc(Cl)cc(Cl)c2Cl)nc1C#N` [Compound 1, 5-(methylamino)-2-(2,3,5-trichlorophenyl) oxazole-4-carbonitrile] as the compound, how does the pEC50 (Mouse HT22) read?
Its pEC50 is 5.30.

And the “Corner test, improvement compared to vehicle treatment” value ([1]; Week 1)?
The value was 68.7%.

What about the “Corner test, improvement compared to vehicle treatment” value ([1]; Week 4) of the same compound?
Its value is 75.4%.

And the “Garcia score, improvement compared to vehicle treatment” value ([2]; Day 3)?
The value was 23.8%.

What about the “Garcia score, improvement compared to vehicle treatment” value ([2]; Week 4) of the same compound?
The value was 68.5%.

What about the “Neuronal cell death after SAH” value (SAH wild-type mice) of the same compound?
Its value is “reduced”.

What about the Sol [3] of the same compound?
The Sol was “+ (“+” < 10 μM)”.

And the “Adhesive (tape) removal test, improvement compared to vehicle treatment” value ([4]; Week 1)?
Its value is 65.6%.

What about the “Adhesive (tape) removal test, improvement compared to vehicle treatment” value ([4]; Week 4) of the same compound?
Its value is 93.3%.

And the solution concentration achieved [5]?
The solution concentration achieved was 20 mg/mL.

What about the “selectivity over 5-LOX” value (5-LOX) of the same compound?
The value was greater than 400 fold.

What about the infarct size reduction ([6]; 20 mg/kg i.v. 2 hours post reperfusion) of the same compound?
Its infarct size reduction is 25.8%.

What about the infarct size reduction ([6]; 40 mg/kg i.v. in 10% Solutol/90% PEG400, 2 h after reperfusion, 24 h) of the same compound?
Its infarct size reduction is 34.1%.

What about the infarct size reduction ([6]; female mice, 40 mg/kg i.p. at time of reperfusion, 24 h after 60 minutes MCAO) of the same compound?
The infarct size reduction was 37.2%.

And the infarct size reduction ([6]; male mice, 40 mg/kg i.p. at time of reperfusion, 24 h after 60 minutes MCAO)?
The infarct size reduction was 33.4%.

And the “selectivity over COX-1” value (COX-1)?
The value was greater than 400 fold.

What about the “selectivity over 12-LOX” value (12-LOX) of the same compound?
Its value is greater than 400 fold.

And the pEC50 (Human 12/15-LOX HEK)?
The pEC50 was 6.04.

What about the “Foot fault test, improvement compared to vehicle treatment” value ([7]; Week 1) of the same compound?
The value was 61.7%.

What about the “Foot fault test, improvement compared to vehicle treatment” value ([7]; Week 4) of the same compound?
The value was 77.0%.
